According to ChEMBL document CHEMBL1128178, “Kynurenic acid derivatives inhibit the binding of nerve growth factor (NGF) to the low-affinity p75 NGF receptor” (J Med Chem, 1995):

molecular target: T1, Tumor necrosis factor receptor superfamily member 16 (Homo sapiens, UniProt P08138); assay: Inhibition of [125I]- NGF binding to extracellular domain of p75 receptor
T1 sequence (P08138 whole entry): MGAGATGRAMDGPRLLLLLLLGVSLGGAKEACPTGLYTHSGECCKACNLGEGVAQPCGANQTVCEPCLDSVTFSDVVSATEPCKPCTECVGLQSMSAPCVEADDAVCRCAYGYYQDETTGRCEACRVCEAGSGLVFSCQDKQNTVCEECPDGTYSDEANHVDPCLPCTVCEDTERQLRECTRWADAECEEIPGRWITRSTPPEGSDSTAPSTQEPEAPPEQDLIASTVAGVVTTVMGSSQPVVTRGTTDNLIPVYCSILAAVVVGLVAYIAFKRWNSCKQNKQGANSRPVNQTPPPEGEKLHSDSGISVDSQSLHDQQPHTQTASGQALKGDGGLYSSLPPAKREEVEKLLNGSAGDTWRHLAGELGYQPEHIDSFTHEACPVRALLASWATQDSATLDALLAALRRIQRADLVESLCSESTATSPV

| Compound | IC50 [nM] |
| --- | --- |
| COC(=O)c1c(C)sc2c(O)cc(C(=O)O)nc12 | 2300 |
| COC(=O)c1c(C)sc2c(O)cc(C(=O)Nn3cnnn3)nc12 | 1300 |
| Cn1c2ccc(NC(=O)c3ccccc3)cc2c(=O)n2nc(C(=O)O)cc12 | 200 |
| Nc1ccc2nc(C(=O)O)cc(O)c2c1 | 3100 |

molecular target: T1, Tumor necrosis factor receptor superfamily member 16; assay: Inhibition of [125I]- NGF binding to extracellular domain of p75 receptor; IA=Inactive

| Compound | IC50 |
| --- | --- |
| Cc1ccc(C(=O)Nc2ccc3c(c2)c(=O)cc(C(=O)O)n3C)cc1 | Not Active |
| Cn1c(C(=O)O)cc(=O)c2cc(N)ccc21 | Not Active |
| Cc1ccc(C(=O)Nc2ccc3nc(C(=O)O)cc(O)c3c2)cc1 | Not Active |
| O=C(O)c1cc(O)c2c(C(=O)O)cccc2n1 | Not Active |
| O=C(O)c1cc(O)c2cc([N+](=O)[O-])ccc2n1 | Not Active |
| Cc1ccc(C(=O)Nc2ccc3c(O)cc(C(=O)O)nc3c2)cc1 | Not Active |
| O=C(O)c1ccc2c(O)cc(C(=O)O)nc2c1 | Not Active |
| O=C(O)c1cc(O)c2c(Cl)cc(Cl)cc2n1 | Not Active |
| O=C(O)c1cc(=O)c2ccccc2[nH]1 [TRANSTORINE] | Not Active |
| NC(=O)c1ccc2nc(C(=O)O)cc(O)c2c1 | Not Active |
| O=C(O)c1ccc2nc(C(=O)O)cc(O)c2c1 | Not Active |

molecular target: T2, Tumor necrosis factor receptor superfamily member 16 (Homo sapiens) (UniProt P08138); assay: Percent inhibition of [125I]- NGF binding to extracellular domain of p75 receptor at 10 uM
T2 sequence (whole entry): T1 sequence (P08138 whole entry)

| Compound | inhibition [%] |
| --- | --- |
| Nc1ccc2c(O)cc(C(=O)O)nc2c1 | 37 |
| Nc1cccc2nc(C(=O)O)cc(O)c12 | 50 |
| Cc1ccc(C(=O)Nc2cccc3nc(C(=O)O)cc(O)c23)cc1 | 38 |
| COc1cc(C(=O)O)nc2ccc(N)cc12 | 28 |
| COc1cc(C(=O)O)nc2ccc(NC(=O)c3ccc(C)cc3)cc12 | 29 |
